Source: the supplement of paper PMC10307832

How the values were obtained:
Test in all cases: relative viability (nuclei count vs DMSO), 5 days (fraction); higher = more cells survive
[1] = compound: COc1cc2nc(N3CCCN(C)CC3)nc(NC3CCN(Cc4ccccc4)CC3)c2cc1OC + Cc1cc(Nc2cc(N3CCN(C)CC3)nc(Sc3ccc(NC(=O)C4CC4)cc3)n2)n[nH]1 [Tozasertib] (partner 0.1 µM)
Outline: (§1)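 Relative viability divides the nuclei count in treated wells by that in vehicle wells. Lung cancer cell lines were seeded in 1536-well plates, dosed by pin tool the next day, and fixed and stained after 5 days in one step with final 0.05% Triton X-100, 1% formaldehyde and 1 ug/ml Hoechst. Dosing was a single drug or a fixed anchor-drug dose plus five library-drug doses (not always all listed) in √10 steps, and values are medians of duplicate plates imaged at 4×.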

[2] = compound: COc1cc2nc(N3CCCN(C)CC3)nc(NC3CCN(Cc4ccccc4)CC3)c2cc1OC + NC(=O)Nc1cc(-c2cccc(F)c2)sc1C(=O)N[C@H]1CCCNC1 [AZD7762] (partner 0.2 µM)
Outline: as §1

[3] = compound: COc1cc2nc(N3CCCN(C)CC3)nc(NC3CCN(Cc4ccccc4)CC3)c2cc1OC + COc1cccc2cc(-c3nc([C@H]4CC[C@H](C(=O)O)CC4)n4ncnc(N)c34)[nH]c12 [OSI-027] (partner 0.5 µM)
Outline: as §1

AZD6482 + Alpelisib = compound: Cc1cc([C@@H](C)Nc2ccccc2C(=O)O)c2nc(N3CCOCC3)cc(=O)n2c1 [AZD6482] + Cc1nc(NC(=O)N2CCC[C@H]2C(N)=O)sc1-c1ccnc(C(C)(C)C(F)(F)F)c1 [Alpelisib] (partner 2 µM)
Outline: as §1

Cell Line | relative viability ([1]; first compound 0.2 µM) | relative viability ([1]; first compound 0.6325 µM) | relative viability ([1]; first compound 2 µM) | relative viability ([1]; first compound 6.325 µM) | relative viability ([2]; first compound 0.6325 µM) | relative viability ([2]; first compound 6.325 µM) | relative viability ([3]; first compound 0.2 µM) | relative viability ([3]; first compound 0.6325 µM) | relative viability ([3]; first compound 2 µM) | relative viability ([3]; first compound 6.325 µM) | relative viability (AZD6482 + Alpelisib; first compound 0.08 µM) | relative viability (AZD6482 + Alpelisib; first compound 0.253 µM) | relative viability (AZD6482 + Alpelisib; first compound 0.8 µM) | relative viability (AZD6482 + Alpelisib; first compound 2.53 µM) | relative viability (AZD6482 + Alpelisib; first compound 8 µM) | relative viability ([2]; first compound 0.2 µM) | relative viability ([2]; first compound 2 µM)
NCI-H1648 | 0.491 | 0.527 | 0.508 | 0.538 | 0.708 | 0.68 | 0.258 | 0.318 | 0.313 | 0.275 |  |  |  |  |  |  | 
SK-MES-1 | 0.882 | 0.912 | 0.852 | 0.1 |  |  | 0.61 | 0.56 | 0.536 | 0.218 | 0.515 | 0.658 | 0.459 | 0.269 | 0.433 |  | 
HCC-366 | 0.117 | 0.108 | 0.105 | 0.0544 | 0.203 | 0.258 | 0.92 | 0.944 | 0.398 | 0.747 | 0.171 | 0.165 | 0.208 | 0.105 | 0.188 | 0.232 | 0.272
201T | 0.973 | 0.908 | 0.946 | 0.924 | 0.619 | 0.602 | 0.706 | 0.811 | 0.73 | 0.601 | 0.908 | 0.809 | 0.842 | 0.714 | 0.848 | 0.657 | 0.492
HCC-827 | 0.406 | 0.45 | 0.374 | 0.423 | 0.213 | 0.238 | 0.761 | 0.793 | 0.687 | 0.781 | 0.613 | 0.506 | 0.456 | 0.33 | 0.351 | 0.199 | 0.15
NCI-H647 | 0.486 | 0.272 | 0.366 | 0.207 | 0.602 | 0.419 | 0.597 | 0.664 | 0.62 | 0.272 | 0.622 |  | 0.778 | 0.459 | 0.526 | 0.479 | 0.512
NCI-H2023 | 0.368 | 0.301 | 0.46 | 0.109 |  |  | 0.363 | 0.508 | 0.364 | 0.126 | 0.389 | 0.427 | 0.449 | 0.267 | 0.32 |  | 
NCI-H520 | 0.405 | 0.405 | 0.437 | 0.507 |  |  | 0.315 | 0.269 | 0.212 | 0.234 | 0.381 | 0.287 | 0.263 |  | 0.353 |  | 
RERF-LC-KJ | 0.508 | 0.523 | 0.47 | 0.417 | 0.932 | 0.888 | 0.527 | 0.586 | 0.573 | 0.383 | 0.653 | 0.614 | 0.6 | 0.559 | 0.637 | 1.03 | 0.999
A-427 | 0.188 | 0.221 | 0.238 | 0.279 | 0.681 | 0.775 | 0.487 | 0.55 | 0.442 | 0.386 | 1.08 | 0.967 | 1.04 | 0.952 | 1.06 | 0.785 | 0.756
NCI-H441 | 0.607 | 0.623 | 0.581 | 0.69 | 1.12 | 1.12 | 0.576 | 0.521 | 0.573 | 0.591 | 0.65 | 0.834 | 0.592 | 0.532 | 0.66 | 1.09 | 0.973
NCI-H1703 |  |  |  |  |  | 0.184 |  |  |  |  | 0.273 | 0.179 | 0.194 | 0.167 | 0.231 | 0.118 | 0.125
NCI-H1792 |  |  |  |  | 0.591 | 0.58 | 0.836 | 0.816 | 0.682 | 0.784 | 0.516 | 0.518 | 0.67 | 0.393 | 0.359 | 0.778 | 0.76
Calu-6 |  |  |  |  |  |  |  |  |  |  | 0.812 | 0.847 | 0.873 | 0.75 | 0.926 |  | 
SK-LU-1 | 0.363 | 0.349 | 0.363 | 0.352 |  |  | 0.358 | 0.302 | 0.36 | 0.179 |  | 0.89 | 0.892 | 0.76 | 0.76 |  | 
PC-3 [JPC-3] | 0.932 | 0.915 | 0.938 | 0.88 | 1.06 | 0.685 | 0.767 | 0.746 | 0.764 | 0.764 | 0.855 | 0.997 | 0.983 | 0.877 | 0.97 | 0.692 | 0.874
EMC-BAC-2 | 0.264 | 0.258 | 0.32 | 0.317 | 1.16 | 1.29 | 0.361 | 0.353 | 0.39 | 0.397 | 0.639 | 0.624 | 0.619 | 0.571 | 0.617 | 1.06 | 1.07
LK-2 | 0.199 | 0.178 | 0.187 | 0.19 | 0.487 | 0.249 | 0.197 | 0.221 | 0.196 | 0.214 | 1.07 |  | 1.86 | 0.972 | 1.21 | 0.463 | 0.506
NCI-H2126 | 0.818 | 0.874 | 0.868 | 0.826 | 1.02 | 0.982 | 0.769 | 0.794 | 0.693 | 0.662 | 0.608 | 0.569 | 0.606 | 0.476 | 0.559 | 1.04 | 1.04
NCI-H3122 | 0.429 | 0.413 | 0.543 | 0.536 | 0.918 | 0.983 | 0.935 | 0.877 | 0.992 | 0.729 | 0.696 | 0.717 | 0.754 | 0.394 | 0.677 | 1.1 | 1.02
NCI-H1975 | 0.797 | 0.804 | 0.999 | 0.832 | 0.813 | 0.775 | 0.785 | 0.693 | 0.744 | 0.776 | 0.475 | 0.439 | 0.521 | 0.373 | 0.362 | 0.78 | 0.805
